Molecules are shown by their SMILES.

The target of this assay is IgE-Tb / sFcεRIα-Y131A-AF488 (Homo sapiens, UniProt P01854, N146Q/N252Q). The assay can be described thus: IgE-Tb / sFcεRIα-Y131A-AF488 FRET assay (protocol for examples 234 to 501). The note with it: examples 234 to 501: compound with IgE-Tb 30 minutes before sFcεRIα-Y131A-AF488, incubated 18 hours at room temperature; read-out: Y131A FRET IC50 range. It counts as binding. An outline of the steps: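 Read-out is the 520/490 nm emission ratio (337 nm excitation) after 18 h at room temperature, background subtracted, fitted four-parameter for IC50. Final reagents: 5 nM IgE-Tb, preincubated 30 min with compound (top typically 10 μM, 2% DMSO, 3-fold 10-point), plus 25 nM sFcεRIα-Y131A-AF488.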
IgE-Tb / sFcεRIα-Y131A-AF488, sequence (P01854 whole entry N146Q/N252Q): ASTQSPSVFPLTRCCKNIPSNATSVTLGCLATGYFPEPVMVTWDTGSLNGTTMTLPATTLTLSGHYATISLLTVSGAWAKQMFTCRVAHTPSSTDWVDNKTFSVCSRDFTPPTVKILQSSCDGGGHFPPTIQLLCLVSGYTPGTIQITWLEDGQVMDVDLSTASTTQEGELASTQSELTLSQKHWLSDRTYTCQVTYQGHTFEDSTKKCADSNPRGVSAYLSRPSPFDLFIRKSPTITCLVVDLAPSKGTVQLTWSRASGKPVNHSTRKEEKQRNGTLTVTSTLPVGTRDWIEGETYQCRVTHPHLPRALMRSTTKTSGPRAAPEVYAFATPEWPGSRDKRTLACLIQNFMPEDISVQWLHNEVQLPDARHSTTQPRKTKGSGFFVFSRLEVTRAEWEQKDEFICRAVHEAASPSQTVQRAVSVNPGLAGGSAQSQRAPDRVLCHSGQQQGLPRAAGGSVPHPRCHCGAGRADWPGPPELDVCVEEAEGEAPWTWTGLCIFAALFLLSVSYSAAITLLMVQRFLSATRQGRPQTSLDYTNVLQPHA
For the compound `Cn1nc(C(F)F)cc1Nc1nncn1[C@H]1CCc2sc(NC(=O)C3CC(F)(F)C3)c(C(=O)NCC3CC3)c2C1` [Example 357, (5S)—N-(cyclopropylmethyl)-2-[(3,3-difluorocyclobutanecarbonyl)amino]-5-[3-[[5-(difluoromethyl)-2-methylpyrazol-3-yl]amino]-1,2,4-triazol-4-yl]-4,5,6,7-tetrahydro-1-benzothiophene-3-carboxamide], the IC50 was below 1000 nM. With `Cn1nc(C(F)F)cc1Nc1nncn1[C@H]1CCc2sc(NC(=O)CC(F)F)c(C(=O)NCC3CC3)c2C1` [Example 358, (5S)—N-(cyclopropylmethyl)-5-[3-[[5-(difluoromethyl)-2-methylpyrazol-3-yl]amino]-1,2,4-triazol-4-yl]-2-(3,3-difluoropropanoylamino)-4,5,6,7-tetrahydro-1-benzothiophene-3-carboxamide], the IC50 was below 1000 nM.

For the compound `Cn1nc(C(F)F)cc1Nc1nncn1[C@H]1CCc2sc(NC(=O)C3CCC3)c(C(=O)NCC3CC3)c2C1` [Example 359, (5S)-2-(cyclobutanecarbonylamino)-N-(cyclopropylmethyl)-5-[3-[[5-(difluoromethyl)-2-methylpyrazol-3-yl]amino]-1,2,4-triazol-4-yl]-4,5,6,7-tetrahydro-1-benzothiophene-3-carboxamide], the IC50 was below 1000 nM. With `CC(C)C(=O)Nc1sc2c(c1C(=O)NCC1CC1)C[C@@H](n1cnnc1Nc1cc(C(F)F)nn1C)CC2` [Example 360, (5S)—N-(cyclopropylmethyl)-5-[3-[[5-(difluoromethyl)-2-methylpyrazol-3-yl]amino]-1,2,4-triazol-4-yl]-2-(2-methylpropanoylamino)-4,5,6,7-tetrahydro-1-benzothiophene-3-carboxamide], the IC50 was below 1000 nM.

In the case of `Cn1nc(C(F)F)cc1Nc1nncn1[C@H]1CCc2sc(NC(=O)[C@H]3C[C@@H]3F)c(C(=O)NCC3CC3)c2C1` [Example 368, (5S)—N-(cyclopropylmethyl)-5-[3-[[5-(difluoromethyl)-2-methyl-pyrazol-3-yl]amino]-1,2,4-triazol-4-yl]-2-[[(1R,2S)-2-fluorocyclopropanecarbonyl]amino]-4,5,6,7-tetrahydrobenzothiophene-3-carboxamide], the IC50 is below 1000 nM. Take `Cn1nc(C(F)F)cc1Nc1nncn1[C@H]1CCc2sc(NC(=O)C3CC3)c(C(=O)N[C@H]3C[C@H](F)C3)c2C1` [Example 373, (5S)-2-(cyclopropanecarbonylamino)-5-[3-[[5-(difluoromethyl)-2-methylpyrazol-3-yl]amino]-1,2,4-triazol-4-yl]-N-(trans-3-fluorocyclobutyl)-4,5,6,7-tetrahydro-1-benzothiophene-3-carboxamide]: the IC50 is below 1000 nM.

Turning to `Cn1nc(OC(F)F)cc1Nc1nncn1[C@H]1CCc2sc(NC(=O)[C@H]3C[C@@H]3F)c(C(=O)NC[C@H]3C[C@H]3F)c2C1` [Example 380, (5S)-5-[3-[[5-(difluoromethoxy)-2-methylpyrazol-3-yl]amino]-1,2,4-triazol-4-yl]-2-[[(1R,2S)-2-fluorocyclopropanecarbonyl]amino]-N-[[(1R,2R)-2-fluorocyclopropyl]methyl]-4,5,6,7-tetrahydro-1-benzothiophene-3-carboxamide], the IC50 is below 1000 nM. The figure for `Cn1nc(C(F)F)cc1Nc1nncn1[C@H]1CCc2sc(NC(=O)C3CC3)c(C(=O)NC3CC(F)(F)C3)c2C1` [Example 387, (5S)-2-(cyclopropanecarbonylamino)-N-(3,3-difluorocyclobutyl)-5-[3-[[5-(difluoromethyl)-2-methylpyrazol-3-yl]amino]-1,2,4-triazol-4-yl]-4,5,6,7-tetrahydro-1-benzothiophene-3-carboxamide] is below 1000 nM; for `Cn1nc(C(F)F)cc1Nc1nncn1[C@H]1CCc2sc(NC(=O)C3CC3)c(C(=O)N[C@H]3C[C@@H](F)C3)c2C1` [Example 388, (5S)-2-(cyclopropanecarbonylamino)-5-[3-[[5-(difluoromethyl)-2-methylpyrazol-3-yl]amino]-1,2,4-triazol-4-yl]-N-(cis-3-fluorocyclobutyl)-4,5,6,7-tetrahydro-1-benzothiophene-3-carboxamide] it is below 1000 nM; for `Cn1nc(C(F)F)cc1Nc1nncn1[C@H]1CCc2sc(NC(=O)C3CC3)c(C(=O)NCC3CC(F)(F)C3)c2C1` [Example 389, (5S)-2-(cyclopropanecarbonylamino)-N-[(3,3-difluorocyclobutyl)methyl]-5-[3-[[5-(difluoromethyl)-2-methylpyrazol-3-yl]amino]-1,2,4-triazol-4-yl]-4,5,6,7-tetrahydro-1-benzothiophene-3-carboxamide] it is below 1000 nM. Turning to `CC1CC1CNC(=O)c1c(NC(=O)C2CC2F)sc2c1CC(n1cnnc1Nc1cc(C(F)(F)F)nn1C)CC2` [Example 390, (5S)-2-[[(1R,2R)-2-fluorocyclopropanecarbonyl]amino]-N-[[1RS,2RS)-2-methylcyclopropyl]methyl]-5-[3-[[2-methyl-5-(trifluoromethyl)pyrazol-3-yl]amino]-1,2,4-triazol-4-yl]-4,5,6,7-tetrahydro-1-benzothiophene-3-carboxamide (cis)], the IC50 is below 1000 nM. `Cn1nc(C(F)(F)F)cc1Nc1nncn1[C@H]1CCc2sc(NC(=O)[C@H]3C[C@H]3F)c(C(=O)NC[C@@H]3C[C@@H]3F)c2C1` [Example 392, (5S)-2-[[(1R,2R)-2-fluorocyclopropanecarbonyl]amino]-N-[[(1S,2S)-2-fluorocyclopropyl]methyl]-5-[3-[[2-methyl-5-(trifluoromethyl)pyrazol-3-yl]amino]-1,2,4-triazol-4-yl]-4,5,6,7-tetrahydro-1-benzothiophene-3-carboxamide]: the IC50 was below 1000 nM. With `Cn1nc(C(F)(F)F)cc1Nc1nncn1[C@H]1CCc2sc(NC(=O)[C@H]3C[C@H]3F)c(C(=O)NC[C@H]3C[C@@H]3F)c2C1` [Example 395, (5S)-2-[[(1R,2R)-2-fluorocyclopropanecarbonyl]amino]-N-[[(1R,2S)-2-fluorocyclopropyl]methyl]-5-[3-[[2-methyl-5-(trifluoromethyl)pyrazol-3-yl]amino]-1,2,4-triazol-4-yl]-4,5,6,7-tetrahydro-1-benzothiophene-3-carboxamide], the IC50 is below 1000 nM. Then `Cn1nc(C(F)(F)F)cc1Nc1nncn1[C@H]1CCc2sc(NC(=O)[C@H]3C[C@H]3F)c(C(=O)NC[C@H]3C[C@H]3F)c2C1` [Example 399, (5S)-2-[[(1R,2R)-2-fluorocyclopropanecarbonyl]amino]-N-[[(1R,2R)-2-fluorocyclopropyl]methyl]-5-[3-[[2-methyl-5-(trifluoromethyl)pyrazol-3-yl]amino]-1,2,4-triazol-4-yl]-4,5,6,7-tetrahydro-1-benzothiophene-3-carboxamide], with below 1000 nM. Regarding `Cn1nc(C(F)(F)F)cc1Nc1nncn1[C@H]1CCc2sc(NC(=O)[C@@H]3C[C@@H]3F)c(C(=O)NCC3CC3)c2C1` [Example 401], the IC50 is below 1000 nM. The figure for `Cn1nc(C(F)(F)F)cc1Nc1nncn1[C@H]1CCc2sc(NC(=O)[C@H]3C[C@H]3F)c(C(=O)N[C@H]3C[C@H](F)C3)c2C1` [Example 402, (5S)—N-(trans-3-fluorocyclobutyl)-2-[[(1R,2R)-2-fluorocyclopropanecarbonyl]amino]-5-[3-[[2-methyl-5-(trifluoromethyl)pyrazol-3-yl]amino]-1,2,4-triazol-4-yl]-4,5,6,7-tetrahydro-1-benzothiophene-3-carboxamide] is below 1000 nM; for `[2H]C([2H])([2H])n1nc(C(F)F)cc1Nc1nncn1[C@H]1CCc2sc(NC(=O)C3CC3)c(C(=O)NCC3CC3)c2C1` [Example 403, (5S)-2-(cyclopropanecarbonylamino)-N-(cyclopropylmethyl)-5-[3-[[5-(difluoromethyl)-2-(trideuteriomethyl)pyrazol-3-yl]amino]-1,2,4-triazol-4-yl]-4,5,6,7-tetrahydrobenzothiophene-3-carboxamide] it is below 1000 nM; for `Cn1nc(C(F)F)cc1Nc1nncn1[C@H]1CCc2sc(NC(=O)[C@H]3CC34CC4)c(C(=O)NC[C@H]3C[C@H](F)C3)c2C1` [Example 404, (5S)-5-[3-[[5-(Difluoromethyl)-2-methylpyrazol-3-yl]amino]-1,2,4-triazol-4-yl]-N-[trans-(3-fluorocyclobutyl)methyl]-2-[[(2S)-spiro[2.2]pentane-2-carbonyl]amino]-4,5,6,7-tetrahydro-1-benzothiophene-3-carboxamide] it is below 1000 nM. Consider `Cn1nc(C(F)F)cc1Nc1nncn1[C@H]1CCc2sc(NC(=O)[C@H]3CC34CC4)c(C(=O)N[C@H]3C[C@H](F)C3)c2C1` [Example 405, (5S)-5-[3-[[5-(Difluoromethyl)-2-methylpyrazol-3-yl]amino]-1,2,4-triazol-4-yl]-N-(trans-3-fluorocyclobutyl)-2-[[(2S)-spiro[2.2]pentane-2-carbonyl]amino]-4,5,6,7-tetrahydro-1-benzothiophene-3-carboxamide], for which the IC50 was below 1000 nM. For `Cn1nc(C(F)F)cc1Nc1nncn1[C@H]1CCc2sc(NC(=O)[C@H]3CC34CC4)c(C(=O)NC3CC(F)(F)C3)c2C1` [Example 406, (5S)—N-(3,3-Difluorocyclobutyl)-5-[3-[[5-(difluoromethyl)-2-methylpyrazol-3-yl]amino]-1,2,4-triazol-4-yl]-2-[[(2S)-spiro[2.2]pentane-2-carbonyl]amino]-4,5,6,7-tetrahydro-1-benzothiophene-3-carboxamide], the IC50 was below 1000 nM. For the compound `Cn1nc(C(F)F)cc1Nc1nncn1[C@H]1CCc2sc(NC(=O)[C@H]3CC34CC4)c(C(=O)NCC3CC(F)(F)C3)c2C1` [Example 407, (5S)—N-[(3,3-Difluorocyclobutyl)methyl]-5-[3-[[5-(difluoromethyl)-2-methylpyrazol-3-yl]amino]-1,2,4-triazol-4-yl]-2-[[(2S)-spiro[2,2]pentane-2-carbonyl]amino]-4,5,6,7-tetrahydro-1-benzothiophene-3-carboxamide], the IC50 is below 1000 nM.

As a reminder, the IC50 is the concentration needed to halve the response being measured.

The values are drawn from patent publication US12018021B2 (UCB Biopharma SRL, priority 2018, dated 2024).
